Measured values from article PMC6277767, “Broad and Region-Specific Impacts of the Synthetic Cannabinoid CP 55,940 in Adolescent and Adult Female Mouse Brains” (Frontiers in Molecular Neuroscience, 2018).

Tested on: CD1 female mouse brain lipidome
Experiment: Brain-region lipid levels (HPLC/MS/MS lipidomics) 2 h after single i.p. 3 mg/kg CP 55,940 vs vehicle
Assay type: in vivo
Set-up: N-arachidonoyl phenylalanine level, Mean / N-stearoyl tryptophan level, Mean / N-stearoyl proline level, Mean / N-stearoyl leucine level, Mean / N-stearoyl phenylalanine level, Mean / N-stearoyl serine level, Mean / N-stearoyl methionine level, Mean: unit: moles per gram
Description: The Bloomington Institutional Animal Care and Use Committee of Indiana University reviewed and approved the animal procedures. Female mice from the CD1 strain were utilized to match our study examining THC’s effects on the brain lipidome ([Leishman et al., 2018]). Mice were given a single i.p. injection of either 3 mg/kg CP or 1:1:18 cremophor:ethanol:saline vehicle (please refer to the section “3 mg/kg CP Is Relevant for Synthetic Cannabinoid Abuse and Has Stronger Effects on the Female Mouse Brain Lipidome During Adolescence” for a justification of dose and use of female mice). Three different age groups were given injections: PND 35 and PND 50 adolescents, and adult mice (PND 113). At least eight mice in each age group received CP and at least eight received vehicle. Matching the THC study time course ([Leishman et al., 2018]), mice were sacrificed via rapid decapitation 2 h after injection. Brains were immediately removed and flash-frozen in liquid nitrogen, and then stored at -80°C until dissections were performed. Brains were dissected on an ice-cold dissection plate into the following regions: STR, HIPP, CER, THAL, CTX, HYP, MID, and STEM. These abbreviations for these brain areas will be used exclusively when discussing the results generated by these specific dissections. Each dissected area was immediately placed in liquid nitrogen and then stored at -80°C until used for lipid extraction.
Tissue extracts were performed as previously described ([Bradshaw et al., 2006]; [Stuart et al., 2013]; [Raboune et al., 2014]; [Leishman et al., 2016a],[b], [2017], [2018]). First, samples were shock frozen in liquid nitrogen, weighed, and transferred to a centrifuge tube. The mass of the largest sample was multiplied by 50 to determine how many milliliters of HPLC-grade methanol (Fisher, Fair Lawn, NJ, United States) to add. Then, samples were spiked with 500 pmol deuterium-labeled NAGly (d8NAGly; Cayman Chemical, Ann Arbor, MI, United States). Samples were placed on ice in darkness for 2 h then individually homogenized and centrifuged at 19,000 × g for 20 min at 20°C. Supernatants were diluted with HPLC water (purified in house) to make a solution of 75% water, 25% supernatant. Lipids were partially purified on C18 solid phase extraction columns (Agilent, Palo Alto, CA, United States). A series of four elutions with 1.5 mL of 60%, 75%, 85%, and 100% methanol were collected ([Stuart et al., 2013]; [Leishman et al., 2016a],[b], [2018]).
As previously described ([Bradshaw et al., 2006]; [Tan et al., 2006]; [Smoum et al., 2010]; [Stuart et al., 2013]; [Tortoriello et al., 2013]; [Raboune et al., 2014]; [Leishman et al., 2016a],[b], [2017], [2018]), samples were analyzed using an Applied Biosystems API 3000 triple quadrupole mass spectrometer with electrospray ionization (Foster City, CA, United States). Using an Agilent XDB-C18 reversed phase analytical column and optimized mobile phase gradients, 20 μL from each elution were chromatographed. Two Shimadzu 10ADvp pumps (Columbia, MD, United States) provided the pressure for gradient elution. Mobile phase A: 20% methanol, 80% water (v/v) and 1 mM ammonium acetate (Sigma, St. Louis, MO, United States). Mobile phase B: 100% methanol, 1 mM ammonium acetate. Every method run began with 0% mobile phase B, reached 100% mobile phase B flowing at 0.2 mL/min, and gradually returned to 0% mobile phase B.
This screening library will be referred to as the lipidome when discussing data from this study. HPLC/MS/MS data were analyzed using Analyst software (Applied Biosystems) ([Bradshaw et al., 2006]; [Tan et al., 2006]; [Stuart et al., 2013]; [Tortoriello et al., 2013]; [Raboune et al., 2014]; [Leishman et al., 2016a],[b], [2017], [2018]). Chromatograms (Supplementary Figure 3) were generated by determining the retention time of analytes from the analytical column with a [M-1] or [M+1] parent peak and a fragmentation peak corresponding to the programmed values. […]

[1] = midbrain, PND 35 WT adolescent female mice, 3 mg/kg
[2] = striatum, PND 50, 3mg/kg CP 55,940 vs Veh
[3] = striatum, PND 50 female mice, 3mg/kg CP 55,940, mean

CCCCCCC(C)(C)c1ccc([C@@H]2C[C@H](O)CC[C@H]2CCCO)c(O)c1 [CP 55,940]
N-stearoyl GABA level, Mean [1]: 7.82E-12
N-stearoyl alanine level, Mean [1]: 9.99E-12
N-stearoyl ethanolamine level, Mean [1]: 1.75E-11
N-stearoyl glycine level, Mean [1]: 2.16E-11
N-stearoyl leucine level, Mean [1]: 1.07E-12
N-stearoyl methionine level, Mean [1]: 2.71E-12
N-stearoyl phenylalanine level, Mean [1]: 2.34E-12
N-stearoyl proline level, Mean [1]: 3.86E-13
N-stearoyl serine level, Mean [1]: 3.54E-11
N-stearoyl tryptophan level, Mean [1]: 7E-13
N-stearoyl tyrosine level, Mean [1]: 2.3E-13
Oleic acid level, Mean [1]: 1.55E-09
PGE2 level, Mean [1]: 5.98E-10
PhosphoLEA level, Mean [1]: 1.57E-11
2-arachidonoyl glycerol, Direction (relative to Veh) [2]: ↓
2-arachidonoyl glycerol, Magnitude (x Veh level) [2]: 0.86 x Veh level
2-linoleoyl glycerol Direction (relative to Veh) [2]: ↓
2-linoleoyl glycerol Magnitude (x Veh level) [2]: 0.77 x Veh level
Arachidonic acid, Direction (relative to Veh) [2]: ↓
Arachidonic acid, Magnitude (x Veh level) [2]: 0.81 x Veh level
Linoleic acid, Direction (relative to Veh) [2]: ↓
Linoleic acid, Magnitude (x Veh level) [2]: 0.78 x Veh level
N-arachidonoyl GABA Direction (relative to Veh) [2]: ↓
N-arachidonoyl GABA Magnitude (x Veh level) [2]: 0.71 x Veh level
N-arachidonoyl glycine Direction (relative to Veh) [2]: ↓
N-arachidonoyl glycine Magnitude (x Veh level) [2]: 0.65 x Veh level
N-arachidonoyl phenylalanine, Direction (relative to Veh) [2]: ↓
N-arachidonoyl phenylalanine, Magnitude (x Veh level) [2]: 0.78 x Veh level
N-arachidonoyl taurine Direction (relative to Veh) [2]: ↓
N-arachidonoyl taurine Magnitude (x Veh level) [2]: 0.91 x Veh level
N-docosahexaenoyl GABA Direction (relative to Veh) [2]: ↓
N-docosahexaenoyl GABA Magnitude (x Veh level) [2]: 0.81 x Veh level
N-docosahexaenoyl glycine Direction (relative to Veh) [2]: ↓
N-docosahexaenoyl glycine Magnitude (x Veh level) [2]: 0.51 x Veh level
N-palmitoyl leucine, Direction (relative to Veh) [2]: ↑
N-palmitoyl leucine, Magnitude (x Veh level) [2]: 1.33 x Veh level
N-palmitoyl tyrosine Magnitude (x Veh level) [2]: 1.35 x Veh level
N-palmitoyl tyrosine, Direction (relative to Veh) [2]: ↑
N-palmitoyl valine Direction (relative to Veh) [2]: ↑
N-palmitoyl valine Magnitude (x Veh level) [2]: 1.72 x Veh level
Oleic acid, Direction (relative to Veh) [2]: ↓
Oleic acid, Magnitude (x Veh level) [2]: 0.79 x Veh level
PGF2α Direction (relative to Veh) [2]: ↑
PGF2α Magnitude (x Veh level) [2]: 1.16 x Veh level
2-arachidonoyl-sn-glycerol level [3]: 1.35E-10
2-linoleoyl-sn-glycerol level [3]: 8.22E-11
2-oleoyl-sn-glycerol level [3]: 9.26E-10
2-palmitoyl-sn-glycerol level [3]: 1.09E-09
11-OH-THC level [3]: BDL
11-nor-9-carboxyTHC level [3]: BDL
Arachidonic acid level [3]: 2.35E-10
Cannabidiol level [3]: BDL
Linoleic acid level [3]: 1.59E-10
N-arachidonoyl GABA level [3]: 4.29E-12
N-arachidonoyl dopamine level [3]: BDL
N-arachidonoyl ethanolamine level [3]: 2.93E-11
N-arachidonoyl glycine level [3]: 5.51E-13
N-arachidonoyl phenylalanine level [3]: 3.83E-13
N-arachidonoyl proline level [3]: BDL
N-arachidonoyl taurine level [3]: 2.53E-11
N-arachidonoyl tryptophan level [3]: BDL
N-docosahexaenoyl GABA level [3]: 4.96E-13
N-docosahexaenoyl ethanolamine level [3]: 3.09E-11
N-docosahexaenoyl glycine level [3]: 1.15E-13
N-docosahexaenoyl leucine level [3]: 1.19E-13
N-docosahexaenoyl methionine level [3]: BDL
N-docosahexaenoyl phenylalanine level [3]: 4.38E-13
N-docosahexaenoyl proline level [3]: BDL
N-docosahexaenoyl tryptophan level [3]: BDL
N-docosahexaenoyl valine level [3]: BDL
N-linoleoyl alanine level [3]: 1.36E-13
N-linoleoyl ethanolamine level [3]: 5.34E-11
N-linoleoyl glycine level [3]: 6.89E-14
N-linoleoyl leucine level [3]: 4.43E-14
N-linoleoyl proline level [3]: BDL
N-linoleoyl serine level [3]: 1.09E-10
N-linoleoyl tryptophan level [3]: BDL
N-linoleoyl tyrosine level [3]: BDL
N-nervonoyl valine level [3]: BDL
N-oleoyl GABA level [3]: 1.25E-12
N-oleoyl alanine level [3]: 1.2E-12
N-oleoyl dopamine level [3]: BDL
N-oleoyl ethanolamine level [3]: 6.94E-11
N-oleoyl glycine level [3]: 1.27E-12
N-oleoyl leucine level [3]: 4.16E-13
N-oleoyl methionine level [3]: 3.74E-13
N-oleoyl phenylalanine level [3]: 5.89E-13
N-oleoyl proline level [3]: BDL
N-oleoyl serine level [3]: 2.17E-10
N-oleoyl tryptophan level [3]: BDL
N-oleoyl tyrosine level [3]: 1.31E-13
N-palmitoyl GABA level [3]: 3.11E-12
N-palmitoyl alanine level [3]: 4.63E-12
N-palmitoyl ethanolamine level [3]: 6.26E-11
N-palmitoyl glycine level [3]: 5.26E-12
N-palmitoyl leucine level [3]: 1.06E-12
N-palmitoyl methionine level [3]: 1.12E-12
N-palmitoyl phenylalanine level [3]: 9.78E-13
N-palmitoyl proline level [3]: BDL
N-palmitoyl serine level [3]: 2.18E-11
N-palmitoyl tryptophan level [3]: BDL
N-palmitoyl tyrosine level [3]: 4.79E-13
